Assay results from patent US8153795B2, “Substituted 1-oxa-3,8-diazaspiro[4.5]-decan-2-one-compounds and the use thereof for producing drugs” (Gruenenthal GmbH, priority 2005, dated 2012).

Target: T1, 5-HT transporter (Rattus norvegicus, UniProt P31652)
T1 construct: from tissue; host or cells: rat brain synaptosomes (P2 fraction) from medulla and pons
Assay: 5-HT uptake inhibition in rat brain synaptosomes (medulla and pons), [3H]-5-HT
Type: biochemical
Source text: a) Method for Determining Noradrenalin and 5-HT Uptake Inhibition:
Synaptosomes from rat brain regions are freshly isolated for in vitro studies, as described in the publication “The isolation of nerve endings from brain” by E. G. Gray and V. P. Whittaker, J. Anatomy 96, pages 79-88, 1962. The corresponding literature description is hereby introduced as a reference and is deemed to be part of the disclosure.
The tissue (hypothalamus for the determination of noradrenalin uptake inhibition and medulla and pons for the determination of 5-HT uptake inhibition) is homogenised in ice-cooled 0.32 M sucrose (100 mg of tissue/1 mL) in a glass homogeniser with Teflon pestle using five complete up and down strokes at 840 revolutions/minute.
The homogenate is centrifuged at 4° C. for 10 minutes at 1000 g. After subsequent centrifugation at 17000 g for 55 minutes, the synaptosomes (P2 fraction) are obtained, which are resuspended in 0.32 M […] (0.5 mL/100 mg of original weight).
The particular uptake is measured in a 96-well microtitre plate. The volume is 250 μl and the incubation proceeds at room temperature (approx. 20-25° C.) under an O2 atmosphere.
The incubation time is 7.5 minutes for [^3H]-NA and 5 minutes for [^3H]-5-HT. The 96 samples are then filtered through a Unifilter GF/B® microtitre plate (Packard) and washed with 200 mL of incubated buffer using a “Brabdel MPXRI-96T Cell-Harvester”. The Unifilter GF/B plate is dried for 1 hour at 55° C. The plate is then sealed with a Back Seal® (Packard) and 35 μl of scintillation fluid are added per well (Ultima Gold®, Packard). After sealing with a top Seal® (Packard) and establishing an equilibrium (around 5 hours), radioactivity is determined in a “Trilux 1450 Microbeta” (Wallac).
The quantity of protein used in the above determination corresponds to the values known from the literature, as for example described in “Protein measurement with the folin phenol reagent”, Lowry et al., J. Biol. Chem., 193, 265-275, 1951.
A detailed description of the method may additionally be found in the literature, for example in M. Ch. Frink, H.-H. Hennies, W. Engelberger, M. Haurand and B. Wilffert (1996) Arzneim.-Forsch./Drug Res. 46 (III), 11, 1029-1036.

T1 sequence (P31652 whole entry): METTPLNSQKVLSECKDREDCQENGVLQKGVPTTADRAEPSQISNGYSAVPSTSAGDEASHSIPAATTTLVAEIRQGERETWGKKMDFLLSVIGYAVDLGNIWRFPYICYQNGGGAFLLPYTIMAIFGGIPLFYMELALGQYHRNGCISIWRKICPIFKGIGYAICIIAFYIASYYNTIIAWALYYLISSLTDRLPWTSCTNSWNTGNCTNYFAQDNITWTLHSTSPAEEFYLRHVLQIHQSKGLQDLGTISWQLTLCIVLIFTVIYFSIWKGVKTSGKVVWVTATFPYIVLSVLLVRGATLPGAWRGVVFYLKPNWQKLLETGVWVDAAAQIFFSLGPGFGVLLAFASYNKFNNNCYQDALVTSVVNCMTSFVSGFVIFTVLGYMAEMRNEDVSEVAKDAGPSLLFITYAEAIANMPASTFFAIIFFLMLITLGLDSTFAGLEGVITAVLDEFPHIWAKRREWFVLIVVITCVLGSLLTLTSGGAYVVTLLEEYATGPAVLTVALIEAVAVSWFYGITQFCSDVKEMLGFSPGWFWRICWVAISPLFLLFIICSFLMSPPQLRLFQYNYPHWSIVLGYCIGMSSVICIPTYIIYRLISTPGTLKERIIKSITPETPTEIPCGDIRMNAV

| SMILES | inhibition at 10 µM |
| --- | --- |
| CC(=O)c1cccc(NC(=O)N2CCC3(CC2)CN(Cc2ccc(C#N)cc2)C(=O)O3)c1 [Example 56, 3-(4-cyanobenzyl)-2-oxo-1-oxa-3,8-diazaspiro[4.5]decane-8-carboxylic acid (3-acetylphenyl)amide] | 60% |
| COc1ccc(Cl)cc1NC(=O)N1CCC2(CC1)CN(Cc1ccc(C#N)cc1)C(=O)O2 [Example 58, 3-(4-cyanobenzyl)-2-oxo-1-oxa-3,8-diazaspiro[4.5]decane-8-carboxylic acid (5-chloro-2-methoxyphenyl)amide] | 49% |
| CCOC(=O)c1cccc(NC(=O)N2CCC3(CC2)CN(Cc2ccccc2C(F)(F)F)C(=O)O3)c1 [Example 59, 3-{[2-oxo-3-(2-trifluoromethylbenzyl)-1-oxa-3,8-diazaspiro[4.5]decane-8-carbonyl]amino}benzoic acid ethyl ester] | 47% |
| CC(C)(C)OC(=O)NC(Cc1c[nH]c2ccccc12)C(=O)N1CCC2(CC1)CN(Cc1cccc(Br)c1)C(=O)O2 (stereo not drawn) [Example 66, [2-[3-(3-bromobenzyl)-2-oxo-1-oxa-3,8-diazaspiro[4.5]dec-8-yl]-1-(1H-indol-3-ylmethyl)-2-oxoethyl]carbamic acid tert-butyl ester] | 53% |
| N#Cc1ccccc1CN1CC2(CCN(C(=O)CC3(CC(=O)O)CCCC3)CC2)OC1=O [Example 71, (1-{2-[3-(2-cyanobenzyl)-2-oxo-1-oxa-3,8-diazaspiro[4.5]dec-8-yl]-2-oxoethyl}cyclopentyl)acetic acid] | 62% |
| O=C(O)CC1(CC(=O)N2CCC3(CC2)CN(Cc2ccc(F)c(F)c2)C(=O)O3)CCCC1 [Example 72, (1-{2-[3-(3,4-difluorobenzyl)-2-oxo-1-oxa-3,8-diazaspiro[4.5]dec-8-yl]-2-oxoethyl}cyclopentyl)acetic acid] | 45% |
| CC(CC(=O)O)CC(=O)N1CCC2(CC1)CN(Cc1ccccc1-c1ccccc1)C(=O)O2 (stereo not drawn) [Example 73, 5-(3-biphenyl-2-ylmethyl-2-oxo-1-oxa-3,8-diazaspiro[4.5]dec-8-yl)-3-methyl-5-oxopentanoic acid] | 57% |
| COc1ccc([N+](=O)[O-])cc1CN1CC2(CCN(CC(=O)Nc3cc(C)nn3C)CC2)OC1=O [Example 76, N-(2,5-dimethyl-2H-pyrazol-3-yl)-2-[3-(2-methoxy-5-nitrobenzyl)-2-oxo-1-oxa-3,8-diazaspiro[4.5]dec-8-yl]acetamide] | 51% |
| O=C1OC2(CCN(Cc3ccc(OC(F)(F)F)cc3)CC2)CN1Cc1ccc(F)c(F)c1 [Example 81, 3-(3,4-difluorobenzyl)-8-(4-trifluoromethoxybenzyl)-1-oxa-3,8-diazaspiro[4.5]decan-2-one] | 75% |
| N#Cc1ccccc1CN1CC2(CCN(Cc3ccc(Cl)cc3)CC2)OC1=O [Example 82, 2-[8-(4-chlorobenzyl)-2-oxo-1-oxa-3,8-diazaspiro[4.5]dec-3-ylmethyl]benzonitrile] | 56% |
| Cc1ccc2ccccc2c1CN1CCC2(CC1)CN(Cc1ccccc1C(F)(F)F)C(=O)O2 [Example 83, 8-(2-methylnaphthalen-1-ylmethyl)-3-(2-trifluoromethylbenzyl)-1-oxa-3,8-diazaspiro[4.5]decan-2-one] | 41% |
| N#Cc1ccccc1CN1CC2(CCN(Cc3csc4ccc(Cl)cc34)CC2)OC1=O [Example 84, 2-[8-(5-chlorobenzo[b]thiophen-3-ylmethyl)-2-oxo-1-oxa-3,8-diazaspiro[4.5]dec-3-ylmethyl]benzonitrile] | 62% |
| O=C(CN1CCC2(CC1)CN(Cc1ccc(SC(F)(F)F)cc1)C(=O)O2)Nc1csc(C(F)(F)F)c1-c1ccccc1 [Example 85, 2-[2-oxo-3-(4-trifluoromethylsulfanylbenzyl)-1-oxa-3,8-diazaspiro[4.5]dec-8-yl]-N-(4-phenyl-5-trifluoromethylthiophen-3-yl)acetamide] | 90% |
| COc1ccc([N+](=O)[O-])cc1CN1CC2(CCN(Cc3cccc([N+](=O)[O-])c3)CC2)OC1=O [Example 88, 3-(2-methoxy-5-nitrobenzyl)-8-(3-nitrobenzyl)-1-oxa-3,8-diazaspiro[4.5]decan-2-one] | 70% |
| Cc1ccc(CN2CC3(CCN(Cc4ccc5ccccc5c4Br)CC3)OC2=O)cc1 [Example 90, 8-(1-bromonaphthalen-2-ylmethyl)-3-(4-methylbenzyl)-1-oxa-3,8-diazaspiro[4.5]decan-2-one] | 77% |
| CC(=O)Nc1ccc(C(=O)N2CCC3(CC2)CN(Cc2cccc(C#N)c2)C(=O)O3)cc1 [Example 91, N-{4-[3-(3-cyanobenzyl)-2-oxo-1-oxa-3,8-diazaspiro[4.5]decane-8-carbonyl]phenyl}acetamide] | 68% |
| CCSc1ncccc1C(=O)N1CCC2(CC1)CN(Cc1cc(C)cc(C)c1)C(=O)O2 [Example 99, 3-(3,5-dimethylbenzyl)-8-(2-ethylsulfanylpyridine-3-carbonyl)-1-oxa-3,8-diazaspiro[4.5]decan-2-one] | 73% |
| Cc1cc(C)cc(CN2CC3(CCN(C(=O)c4c(-c5ccccc5Cl)noc4C)CC3)OC2=O)c1 [Example 101, 8-[3-(2-chlorophenyl)-5-methylisoxazole-4-carbonyl]-3-(3,5-dimethylbenzyl)-1-oxa-3,8-diazaspiro[4.5]decan-2-one] | 84% |
| CCc1ccc(CS(=O)(=O)N2CCC3(CC2)CN(Cc2cccc(Br)c2)C(=O)O3)cc1 [Example 102, 3-(3-bromobenzyl)-8-(4-ethylbenzylsulfonyl)-1-oxa-3,8-diazaspiro[4.5]decan-2-one] | 67% |
| CCCCOc1ccc(CS(=O)(=O)N2CCC3(CC2)CN(Cc2cc(C)cc(C)c2)C(=O)O3)cc1 [Example 103, 8-(4-butoxybenzylsulfonyl)-3-(3,5-dimethylbenzyl)-1-oxa-3,8-diazaspiro[4.5]decan-2-one] | 83% |
| CC(=O)OC(C(=O)N1CCC2(CC1)CN(Cc1cc(C)cc(C)c1)C(=O)O2)c1ccccc1 (stereo not drawn) [Example 105, acetic acid 2-[3-(3,5-dimethylbenzyl)-2-oxo-1-oxa-3,8-diazaspiro[4.5]dec-8-yl]-2-oxo-1-phenylethyl ester] | 74% |
| N#Cc1ccc(CN2CC3(CCN(C(=O)C4CC4c4ccccc4)CC3)OC2=O)cc1 (stereo not drawn) [Example 106, 4-[2-oxo-8-(2-phenylcyclopropanecarbonyl)-1-oxa-3,8-diazaspiro[4.5]dec-3-ylmethyl]benzonitrile] | 63% |
| COc1ccc(OC)c(CS(=O)(=O)N2CCC3(CC2)CN(Cc2cc(C)cc(C)c2)C(=O)O3)c1 [Example 107, 8-(2,5-dimethoxybenzylsulfonyl)-3-(3,5-dimethylbenzyl)-1-oxa-3,8-diazaspiro[4.5]decan-2-one] | 76% |
| Cc1cc(C)cc(CN2CC3(CCN(C(=O)c4ccccc4Cl)CC3)OC2=O)c1 [Example 108, 8-(2-chlorobenzoyl)-3-(3,5-dimethylbenzyl)-1-oxa-3,8-diazaspiro[4.5]decan-2-one] | 77% |
| Cc1ccc(CS(=O)(=O)NC(Cc2ccccc2)C(=O)N2CCC3(CC2)CN(Cc2cccc(C#N)c2)C(=O)O3)cc1 (stereo not drawn) [Example 110, N-{1-benzyl-2-[3-(3-cyanobenzyl)-2-oxo-1-oxa-3,8-diazaspiro[4.5]dec-8-yl]-2-oxoethyl}-4-methylbenzylsulfonamide] | 64% |
| CCSc1ncccc1C(=O)N1CCC2(CC1)CN(Cc1cccc(OC)c1)C(=O)O2 [Example 111, 8-(2-ethylsulfanylpyridine-3-carbonyl)-3-(3-methoxybenzyl)-1-oxa-3,8-diazaspiro[4.5]decan-2-one] | 71% |
| COc1cccc(CN2CC3(CCN(C(=O)c4ccc(OC)cc4OC)CC3)OC2=O)c1 [Example 112, 8-(2,4-dimethoxybenzoyl)-3-(3-methoxybenzyl)-1-oxa-3,8-diazaspiro[4.5]decan-2-one] | 66% |
| COc1cccc(CC(=O)N2CCC3(CC2)CN(Cc2cc(C)cc(C)c2)C(=O)O3)c1 [Example 113, 3-(3,5-dimethylbenzyl)-8-[2-(3-methoxyphenyl)acetyl]-1-oxa-3,8-diazaspiro[4.5]decan-2-one] | 68% |
| COc1cc(C)c(CS(=O)(=O)N2CCC3(CC2)CN(Cc2cc(C)cc(C)c2)C(=O)O3)c(C)c1C [Example 114, 3-(3,5-dimethylbenzyl)-8-(4-methoxy-2,3,6-trimethylbenzylsulfonyl)-1-oxa-3,8-diazaspiro[4.5]decan-2-one] | 73% |
| N#Cc1ccc(CN2CC3(CCN(C(=O)c4ccc(-c5ccccc5)cc4)CC3)OC2=O)cc1 [Example 115, 4-[8-(biphenyl-4-carbonyl)-2-oxo-1-oxa-3,8-diazaspiro[4.5]dec-3-ylmethyl]benzonitrile] | 84% |
